The values below come from article PMC9897792, “Discovery of novel 2-(4-(benzyloxy)-5-(hydroxyl) phenyl) benzothiazole derivatives as multifunctional MAO-B inhibitors for the treatment of Parkinson’s disease” (Journal of Enzyme Inhibition and Medicinal Chemistry, 2023).

Series [1] deals with ROS release in LPS-treated BV-2 cells. The series is described as follows: LPS-induced ROS release in BV-2 cells (DCFH-DA probe). The series is classed as cell-based. To be noted: Mus musculus, LPS 1.0 µg/mL, read-out: inhibition rate of LPS-induced ROS release. The protocol: The inhibitory effect of 3h on LPS-induced ROS release in BV-2 cells in vitro was detected by using 2′,7′-dichlorofluorescein diacetate (DCFH-DA) as probe to quantify the ROS level in LPS-treated BV-2 cells. Noticeably, the fluorescence intensity of control group was relatively low, indicating low level of ROS. […] The fluorescence values were further detected by using microplate reader (Figure 9(B)), and then the inhibition rates were calculated. […] BV-2 cells were incubated with test compound solution (10 µL) for 30 min, then LPS (10 µL, 1.0 µg/ml in PBS) was added to each well, and each well would be incubated for another 30 min at 37 °C. […] The fluorescence was measured with excitation and emission wavelengths at 488 and 525 nm on an inverted fluorescence microscope.

The nature of series [2]: Metal-chelating study by UV spectra. The series is classed as physicochemical. The settings on record: 75.0 μM in methanol; shifted from 335.5 nm. The procedure:
Particularly, after the addition of FeSO4, maximum increase in absorption was detected. Besides, after the addition of CuCl2, maximum absorption peak shifted from 335.5 to 382.0 nm.
UV spectrum method was conducted to clarify the metal chelating ability of 2-(4-(benzyloxy)-5-(hydroxyl) phenyl) benzothiazole derivatives. Test compound solution (1.0 ml, 75 µM in methanol) and metal ion solution (1.0 ml, 75 µM in methanol) were added to a vial. The vial was placed at room temperature for 2 h. Then, the mixture was removed from the vial to a quartz cell. After transfer, the absorbance of the mixture at 200–800 nm was measured by using UV spectrophotometer (Shimadzu UV-1900i).

A short description of series [3]: Oxygen radical absorbance capacity assay with fluorescein (ORAC-FL). The settings on record: Trolox as standard. The protocol:
Oxygen radical absorbance capacity assay which used fluorescein (ORAC-FL) was performed to measure the antioxidant activities of 2-(4-(benzyloxy)-5-(hydroxyl) phenyl) benzothiazole derivatives. […] It reflected that introduction of alkyl substituents on benzyloxy ring was more beneficial for the improvement of in vitro antioxidant activity. However, the position and number of substituents seem to have little influence on the antioxidative activities.
Test compounds solution (20 µL, 10 µM) and fluorescein solution (120 µL, 250 nM) were added to a black 96-wells plate in order. The mixture was incubated for 15 min at 37 °C. Then, AAPH solution (60 µL, 40 mM) was added through an automatic sampler. The fluorescence was recorded with excitation and emission wavelengths at 485 and 535 nm on the multifunctional enzyme marker (Thermo Scientific), and the area under the curve (AUC) was calculated automatically. Trolox was used as a reference, and the antioxidant activities of the compounds were expressed as Trolox equivalent. The test compound solution was replaced with PBS (20 µL) in blank well. The antioxidant activities of the test compounds were calculated by the formula: [(AUCsample − AUCblank)/(AUCtrolox − AUCblank)] × [(Trolox concentration/test sample concentration)].

For series [4], the target named is T1, MAO-B (Homo sapiens, UniProt P27338).
T1 sequence (P27338 1-520): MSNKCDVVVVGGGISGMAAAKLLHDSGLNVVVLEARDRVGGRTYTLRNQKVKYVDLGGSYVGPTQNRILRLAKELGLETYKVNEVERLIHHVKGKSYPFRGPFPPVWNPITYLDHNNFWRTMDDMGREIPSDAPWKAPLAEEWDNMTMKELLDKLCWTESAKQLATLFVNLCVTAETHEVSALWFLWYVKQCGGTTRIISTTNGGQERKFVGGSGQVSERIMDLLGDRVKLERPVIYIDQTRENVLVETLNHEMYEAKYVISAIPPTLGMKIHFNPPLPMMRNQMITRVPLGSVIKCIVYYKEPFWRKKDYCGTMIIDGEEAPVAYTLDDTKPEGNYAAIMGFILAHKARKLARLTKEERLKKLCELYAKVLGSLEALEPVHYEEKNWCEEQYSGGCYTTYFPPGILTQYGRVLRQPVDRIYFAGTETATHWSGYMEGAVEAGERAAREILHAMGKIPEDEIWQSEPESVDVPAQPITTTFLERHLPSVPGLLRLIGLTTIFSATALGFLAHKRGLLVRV
The series is described as follows: Reversibility study of MAO-B inhibition by dialysis method. The series is classed as biochemical.
Procedure: The mixture was incubated at 37 °C for 30 min and transferred to dialysis bag (MWCO: 10 000, flattening width: 24 mm, length: 8–10 cm). Then, this dialysis bag was placed in 200 ml PBS for 24 h, and the outer PBS was replaced with fresh at 3 and 7 h, respectively. As for the undialysis group, the mixture was placed at 4 °C for 24 h. After dialysis, the mixtures (40 µL) in the dialysis bag were taken out to measure the catalytic activity, and the test method was similar with the inhibition experiment of MAOs. […] The test compound solution was replaced with PBS buffer at the same volume in the blank group.

Series [5] in a line: Parallel artificial membrane permeation assay for blood-brain barrier (PAMPA-BBB). The series is classed as in vitro ADME. For orientation: PAMPA measures passive passage across an artificial lipid membrane.
Procedure: Porcine brain lipid solution (4 µL, 20 mg/mL in n-dodecane) was added dropwise to a filter membrane. Then the membrane was placed still at room temperature for 5 min to form an artificial biomembrane. When this bionics membrane was formed, test compound solution (350 µL, 100 µg/mL) was added to the donor well which was over the artificial biomembrane, and the mixture of PBS and Ethanol (200 µL, 70/30, v/v) was added to receptor well which is under the bionics membrane. Then, the “sandwich” was incubated at 25 °C for 18 h. After incubation, 150 µL solution in both donor well and receptor well were taken out and added to a 96-well quartz cuvette, and the absorbance of the mixture at 200–800 nm was measured. The Pe value was calculated according to the formula depicted by the literature.
For series [6], the target named is T1, MAO-B. Kind of series: MAO-B inhibition, kynuramine method. The series is classed as biochemical.
Series [7] relates to TNF-α production in LPS-activated BV-2 microglia cells. The series is described as follows: LPS-induced TNF-α production in BV-2 cells (ELISA). The series is classed as cell-based. To be noted: Mus musculus, LPS 1.0 µg/mL, read-out: inhibition rate of LPS-induced TNF-α production. The procedure:
ELISA method was carried out to detect the inhibitory effects of 3h on LPS-induced TNF-α production. As shown in Figure 8(B), the level of TNF-α expression was dramatically raised when BV-2 cells were exposed to LPS (1.0 µg/mL).
ELISA and Griess reaction methods were performed to detect the inhibitory effect of 3h on the release of TNF-α and NO in LPS-stimulated BV-2 cells[46]^,[47]. BV-2 cells in the logarithmic phase were seeded into 96-well cell culture plate, and these cells were incubated at 37 °C for 24 h at the atmosphere of 5% CO2. After incubation, the culture solution was replaced by fresh one (90 µL without serum), and test compound solution (10 µL) was added. After addition, the plate was incubated for 30 min, then LPS (10 µL, 1.0 µg/ml in PBS) was added to each well, and the mixture would be incubated for another 24 h at 37 °C. After the final incubation, the supernatants were taken out to measure the level of TNF-α and NO according to the procedures depicted on the kits (kits were purchased from Nanjing Jiancheng Bioengineering Institute).
(ELISA stands for enzyme-linked immunosorbent assay.)

For series [8], the target named is T1, MAO-B. The series is described as follows: Kinetic study of MAO-B inhibition (Lineweaver-Burk plots). The series is classed as biochemical. The protocol: Kinetic study[35]^,[36] was conducted to figure out the MAO-B inhibitory mechanism of 2-(4-(benzyloxy)-5-(hydroxyl) phenyl) benzothiazole derivatives, with 3h as the test compound. […] The graphical of the reciprocal Lineweaver-Burk plots was depicted in Figure 2(A).
The kinetic study of 3h was conducted by the method which is similar with the inhibition experiment of MAOs. Different concentrations of 3h (0.124, 0.062, and 0.031 µM) and kynuramine (15, 30, 60, and 90 µM) solutions were selected. The control experiment was performed without 3h. The method of data analysis has been described previously.

Structures are written as SMILES. Several values for one entry are separate records, joined by “and”; a condition that tells them apart may be missing. Identical values can stand only once.

One may read the inhibition as the drop in the measured response relative to a control, in per cent. The IC50 is the concentration that inhibits the measured activity by half. Low values mean higher potency, high ones lower potency. In general, Ki refers to a dissociation constant, usually derived from enzyme kinetics or from competition with a known ligand. Regarding `Oc1cc(OCc2ccc(F)cc2)ccc1-c1nc2ccccc2s1` [3h, 2-(Benzo[d]thiazol-2-yl)-5-((4-fluorobenzyl)oxy)phenol], the inhibition at […] in series [1] (2.5 µM) amounted to 19.8%; in series [7] (2.5 µM), 25.7%. The results for the inhibition at 10 µM in series [1] (10.0 µM) and in series [7] (10.0 µM) were 78% and 52.5%, respectively. Besides, the “maximum absorption peak after the addition of CuCl2” value in series [2] turned out to be 382.0 nm. Further, the ORAC in series [3] was 2.27 Trolox equivalents and 2.27 ± 0.08 Trolox equivalents. Moreover, the MAO-B inhibitory mode result in series [4] (classified by MAO-B catalytic activity in dialysis group) is listed as “reversible (reversible inhibition: MAO-B catalytic activity ≥ 80%)”. Further, the “MAO-B catalytic activity, undialysis group” value in series [4] (test compound 4 × IC50, 4 °C for 24 h without dialysis) was 27.6%. The “MAO-B catalytic activity, dialysis group” value in series [4] (test compound 4 × IC50, dialysis 24 h) came to 80.9%. In addition, in series [5], the “Prediction of penetration into CNS” value is “CNS+ (High BBB permeation predicted (CNS +) Pe> 3.44)”. In addition, the Pe in series [5] (PBS/EtOH (70:30), mean ± SD of three independent experiments) was 4.03 ×10⁻⁶ cm/s. In series [5] (PBS/EtOH (70:30), mean ± SD of three independent experiments, read-out: Pe), the Papp at 18 h, 100 µg/mL turned out to be 4.03 ± 0.14 ×10⁻⁶ cm/s. In series [6], this molecule registered an IC50 of 62 ± 5 nM. Also, the inhibition at 0.5 µM in series [7] (0.5 µM) stood at 7.8%. Further, the MAO-B inhibition pattern entry in series [8] (Lineweaver-Burk plots) is reported as “competitive”. For the same molecule, the Ki in series [8] (from slopes of Lineweaver-Burk plots vs. inhibitor concentration, kynuramine substrate, read-out: competitive inhibition constant (Ki)) was 102 nM.
